Measured values taken from DBAASP.
In brackets after ≈: the same amount, converted by molar mass. Blank lines part the entries; values can stand above or below the molecule they belong to.

What was measured:
Assay in all cases: ≥ marks a high value that may be exact or a test limit, other limits are often not marked, values filed in µg/mL are converted to µM
Acinetobacter sp. = tested on: Acinetobacter sp.
[1] = tested on: Escherichia coli NCTC 10418
Proteus mirabilis = tested on: Proteus mirabilis
Klebsiella aerogenes = tested on: Klebsiella aerogenes
[2] = tested on: Staphylococcus aureus NCTC 10571
Providencia stuartii = tested on: Providencia stuartii
[3] = tested on: Escherichia coli NCTC 8007
Klebsiella sp. = tested on: Klebsiella sp.
Escherichia coli JM109 = tested on: Escherichia coli JM109
[4] = tested on: Escherichia coli ATCC 25922
[5] = tested on: Staphylococcus aureus CCRC 15211
[6] = tested on: Lactococcus lactis MG1363
Escherichia coli INV-a = tested on: Escherichia coli INV-a
[7] = tested on: Klebsiella pneumoniae CCRC 10694
[8] = tested on: Streptococcus alactolyticus
Salmonella enterica = tested on: Salmonella enterica
Pseudomonas aeruginosa = tested on: Pseudomonas aeruginosa
[9] = tested on: Salmonella typhimurium CCRC 12947
[10] = tested on: Candida albicans ATCC 2002
Escherichia coli BL21 = tested on: Escherichia coli BL21
Citrobacter koseri = tested on: Citrobacter koseri
[11] = tested on: Vibrio parahaemolyticus CCRC 10806
[12] = tested on: Staphylococcus aureus ATCC 2592
Staphylococcus xylosus = tested on: Staphylococcus xylosus
[13] = tested on: Staphylococcus aureus CCRC 12652
[14] = tested on: Candida albicans ATCC 90028
[15] = tested on: Staphylococcus aureus JE2
[16] = tested on: Staphylococcus aureus ATCC 43300
Escherichia coli K-12 = tested on: Escherichia coli K-12
[17] = tested on: Klebsiella pneumoniae ATCC 700603
[18] = tested on: Acinetobacter baumannii ATCC 19606
[19] = tested on: Cryptococcus neoformans var. grubii H99
[20] = tested on: Pseudomonas aeruginosa ATCC 27853
[21] = tested on: Pseudomonas aeruginosa 7A
[22] = tested on: Pseudomonas aeruginosa 3A
Staphylococcus aureus 6A = tested on: Staphylococcus aureus 6A
Escherichia coli 23A = tested on: Escherichia coli 23A
Escherichia coli 27A = tested on: Escherichia coli 27A
[23] = tested on: Staphylococcus aureus 15A
Trypanosoma cruzi = tested on: Trypanosoma cruzi

MIC (Acinetobacter sp.): 2 µM (≈ 3.97 µg/mL) | MIC [1]: ≥ 500 µM | MIC (Proteus mirabilis): ≥ 1000 µM | MIC (Klebsiella aerogenes): ≥ 1000 µM | MIC [2]: ≥ 500 µM | MIC (Providencia stuartii): ≥ 1000 µM | MIC [3]: ≥ 500 µM | MIC (Klebsiella sp.): ≥ 1000 µM
SMILES: CSCC[C@H](NC(=O)[C@H](CC(N)=O)NC(=O)[C@H](CCCN=C(N)N)NC(=O)[C@H](CCC(N)=O)NC(=O)[C@H](Cc1c[nH]c2ccccc12)NC(=O)[C@H](CCC(N)=O)NC(=O)[C@@H](N)Cc1ccccc1)C(=O)N[C@@H](CCCN=C(N)N)C(=O)N[C@@H](CCCCN)C(=O)N[C@H](C(=O)N[C@@H](CCCN=C(N)N)C(=O)NCC(=O)N1CCC[C@H]1C(=O)N1CCC[C@H]1C(=O)N[C@H](C(=O)N[C@@H](CO)C(=O)O)C(C)C)C(C)C [FQWQRNMRKVRGPPVS]

SMILES: CC[C@H](C)[C@H](N)C(=O)N[C@@H](CC(N)=O)C(=O)N[C@@H](Cc1c[nH]c2ccccc12)C(=O)N[C@@H](CCCCN)C(=O)NCC(=O)N[C@H](C(=O)N[C@@H](C)C(=O)N[C@@H](C)C(=O)N[C@@H](CCSC)C(=O)N[C@@H](C)C(=O)N[C@@H](CCCCN)C(=O)N[C@@H](CCCCN)C(=O)N[C@@H](CC(C)C)C(=O)N[C@@H](CC(C)C)C(N)=O)[C@@H](C)CC [INWKGIAAMAKKLL]
MIC (Escherichia coli JM109): 5.14 µM (≈ 8 µg/mL) | MIC [4]: 4.82 µM (≈ 7.5 µg/mL) | MIC [5]: ≥ 41.1 µM | MIC [6]: 2.5 µM (≈ 3.89 µg/mL) | MIC (Escherichia coli INV-a): 8 µM (≈ 12.4 µg/mL) | MIC [7]: ≥ 41.1 µM | MIC [8]: 10.3 µM (≈ 16 µg/mL) | MIC (Salmonella enterica): 20.6 µM (≈ 32 µg/mL) | MIC (Pseudomonas aeruginosa): 164 µM (≈ 256 µg/mL) | MIC [9]: 20.6 µM (≈ 32 µg/mL) | MIC [10]: 2.38 µM (≈ 3.7 µg/mL) | MIC (Escherichia coli BL21): 5.14 µM (≈ 8 µg/mL) | MIC (Citrobacter koseri): 2.57 µM (≈ 4 µg/mL) | MIC [11]: 20.6 µM (≈ 32 µg/mL) | MIC [12]: 2.38 µM (≈ 3.7 µg/mL) | MIC (Staphylococcus xylosus): 1.93 µM (≈ 3 µg/mL) | MIC [13]: 20.6 µM (≈ 32 µg/mL)

MIC [14]: 19.6 µM (≈ 32 µg/mL) | MIC [15]: ≥ 39.3 µM | MIC [4]: > 19.6 µM | MIC [16]: 19.6 µM (≈ 32 µg/mL) | MIC (Escherichia coli K-12): 19.6 µM (≈ 32 µg/mL) | MIC [17]: > 19.6 µM | MIC [18]: > 19.6 µM | MIC [19]: 9.82 µM (≈ 16 µg/mL) | MIC [20]: > 19.6 µM
SMILES: CC[C@H](C)[C@H](NC(=O)[C@@H](NC(=O)[C@H](CO)NC(=O)[C@H](C)NC(=O)[C@@H](NC(=O)[C@H](CCCCN)NC(=O)[C@H](CCCCN)NC(=O)[C@@H](NC(=O)[C@@H](NC(=O)[C@H](CCC(=O)O)NC(=O)[C@H](Cc1ccccc1)NC(=O)[C@H](CC(C)C)NC(=O)CN)C(C)C)[C@@H](C)CC)C(C)C)C(C)C)C(=O)NCC(=O)NCC(=O)N[C@@H](CC(C)C)C(=O)O [GLFEVIKKVASVIGGL]

MIC [4]: 5.28 µM (≈ 7.5 µg/mL) | MIC [21]: 2.64 µM (≈ 3.75 µg/mL) | MIC [22]: 2.64 µM (≈ 3.75 µg/mL) | MIC (Staphylococcus aureus 6A): 2.64 µM (≈ 3.75 µg/mL) | MIC (Escherichia coli 23A): 5.28 µM (≈ 7.5 µg/mL) | MIC (Escherichia coli 27A): 10.6 µM (≈ 15 µg/mL) | MIC [23]: 0.703 µM (≈ 1 µg/mL) | MIC [10]: 21.1 µM (≈ 30 µg/mL) | MIC [12]: 1.34 µM (≈ 1.9 µg/mL)
SMILES: CC[C@H](C)[C@H](NC(=O)[C@@H](NC(=O)[C@@H]1CCCN1C(=O)[C@H](CCSC)NC(=O)[C@@H](N)Cc1ccccc1)[C@@H](C)CC)C(=O)NCC(=O)N[C@@H](CCCN=C(N)N)C(=O)N[C@@H](CC(C)C)C(=O)N[C@@H](CCSC)C(=O)N[C@@H](CO)C(=O)NCC(=O)N[C@@H](CO)C(=O)N[C@@H](CC(C)C)C(=O)O [FMPIIGRLMSGSL]

MIC (Trypanosoma cruzi): 15.1 µM (≈ 30 µg/mL)
SMILES: CC[C@H](C)[C@H](NC(=O)[C@H](C)NC(=O)[C@H](CO)NC(=O)[C@@H](NC(=O)[C@H](C)NC(=O)[C@H](CC(N)=O)NC(=O)[C@@H](NC(=O)[C@H](C)NC(=O)[C@H](Cc1cnc[nH]1)NC(=O)[C@@H]1CCCN1C(=O)[C@@H](NC(=O)[C@H](CC(C)C)NC(=O)[C@H](CO)NC(=O)[C@H](CC(C)C)NC(=O)[C@@H](N)Cc1ccccc1)[C@@H](C)CC)[C@@H](C)CC)C(C)C)C(=O)N[C@@H](C)C(=O)N[C@@H](CCCCN)C(=O)N[C@@H](Cc1cnc[nH]1)C(=O)N[C@@H](CO)C(N)=O [FLSLIPHAINAVSAIAKHS]
